In ChEMBL document CHEMBL6127084, “Exploration of the tunability of BRD4 degradation by DCAF16 trans-labelling covalent glues” (Eur J Med Chem, 2024):
Activity calls are given as the source filed them. No cut-off for these calls is given here.

Tests used:
[1] = biological target: T1, DDB1- and CUL4-associated factor 16/Bromodomain-containing protein 4 (Homo sapiens, UniProt O60885+Q9NXF7); experiment: Molecular glue degradation (MGD) activity at DCAF16/BRD4 in human K562 cells assessed as maximum degradation incubated for 16 hrs by fluorescent stability reporter assay relative to control; assay type: cell-based
T1 sequence (Q9NXF7 whole entry, looked up, other chains not shown): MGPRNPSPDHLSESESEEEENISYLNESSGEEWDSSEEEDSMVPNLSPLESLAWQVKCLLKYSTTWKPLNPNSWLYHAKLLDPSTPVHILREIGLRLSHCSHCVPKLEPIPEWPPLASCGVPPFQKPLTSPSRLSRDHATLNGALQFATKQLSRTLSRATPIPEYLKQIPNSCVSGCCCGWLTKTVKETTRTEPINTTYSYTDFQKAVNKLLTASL

[2] = biological target: T1, DDB1- and CUL4-associated factor 16/Bromodomain-containing protein 4; experiment: Molecular glue degradation (MGD) activity at DCAF16/BRD4 in human K562 cells incubated for 16 hrs; assay type: cell-based
[3] = Stability of compound in PBS assessed as half lives incubated for 1 hrs by LC-MS/MS analysis; assay type: physicochemical
[4] = Glutathione reactivity in PBS buffer assessed as half lives incubated for 1 hrs by LC-MS/MS analysis; assay type: physicochemical
K562 = experiment: Induction of eGF-tagged BRD4 BD2 degradation in DCAF16 knock out human K562 cells at 1 uM incubated for 16 hrs by Western blot analysis; assay type: cell-based
Jurkat = experiment: Molecular glue degradation (MGD) activity at BRD4 in DCAF16 knock out human Jurkat cells assessed as BRD4 degradation at 0.01 to 10 uM incubated for 6 hrs by Nano-Glo HiBiT assay; assay type: cell-based; details: dose 0.01-10 µM
[5] = biological target: T1, DDB1- and CUL4-associated factor 16/Bromodomain-containing protein 4; experiment: Molecular glue degradation (MGD) activity at DCAF16/BRD4 in wild type human Jurkat cells assessed as BRD4 degradation at < 100 nM incubated for 6 hrs by Nano-Glo HiBiT assay; assay type: cell-based
[6] = biological target: T1, DDB1- and CUL4-associated factor 16/Bromodomain-containing protein 4; experiment: Molecular glue degradation (MGD) activity at DCAF16/ BRD4 BD2 in human K562 cells transfected with […] incubated for 16 hrs by fluorescent stability reporter assay; assay type: cell-based; details: dose 0.001-10 µM
[7] = biological target: T1, DDB1- and CUL4-associated factor 16/Bromodomain-containing protein 4; experiment: Binding affinity to His-tagged BRD4 BD2 (unknown origin) assessed as ternary complex formation at 0.001 to 100 uM incubated for 1 to 24 hrs by TR-FRET assay; assay type: protein assay; details: dose 0.001-100 µM, time 1-24 hrs
[8] = biological target: T1, DDB1- and CUL4-associated factor 16/Bromodomain-containing protein 4; experiment: Molecular glue degradation (MGD) activity at DCAF16/BRD4 in human K562 cells assessed as covalent-engagement of DCAF16 by measuring BRD4 degradation at 1 uM preincubated for 4 hrs followed by compound addition measured after 24 hrs (no washout experiment) by Western blot analysis; assay type: cell-based; details: time 28.0 hrs
[9] = biological target: T1, DDB1- and CUL4-associated factor 16/Bromodomain-containing protein 4; experiment: Binding affinity to DCAF16/eGF-tagged BRD4 BD2 (unknown origin) assessed as ternary complex formation by measuring maximum TR-FRET ratio at 100 uM incubated for 1 hrs by TR-FRET assay; assay type: protein assay
[10] = biological target: T1, DDB1- and CUL4-associated factor 16/Bromodomain-containing protein 4; experiment: Binding affinity to DCAF16/eGF-tagged BRD4 BD2 (unknown origin) assessed as ternary complex formation by measuring maximum TR-FRET ratio at 100 uM incubated for 24 hrs by TR-FRET assay; assay type: protein assay
[11] = biological target: T1, DDB1- and CUL4-associated factor 16/Bromodomain-containing protein 4; experiment: Molecular glue degradation (MGD) activity at DCAF16/BRD4 in wild type human Jurkat cells assessed as BRD4 degradation at 10 nM incubated for 6 hrs by Nano-Glo HiBiT assay; assay type: cell-based
[12] = biological target: T1, DDB1- and CUL4-associated factor 16/Bromodomain-containing protein 4; experiment: Molecular glue degradation (MGD) activity at DCAF16/BRD4 BD2 in human K562 cells assessed as maximum degradation at 10 uM incubated for 16 hrs by fluorescent stability reporter assay relative to control; assay type: cell-based
[13] = biological target: T1, DDB1- and CUL4-associated factor 16/Bromodomain-containing protein 4; experiment: Potency index, ratio of GNE011 MIC to test compound MIC for molecular glue degradation (MGD) activity at DCAF16/BRD4 BD2 in human K562 cells assessed as maximum degradation at 10 uM incubated for 16 hrs by fluorescent stability reporter assay; assay type: cell-based

Row | Compound | Emax [1] | DC50 [2] | half-life [3] | half-life [4] | Activity (K562) | Activity (Jurkat) | Activity [5] | Activity [6] | Activity [7] | Activity [8] | Ratio [9] | Ratio [10] | Activity [11] | Emax [12] | fold change (FC) [13]
1 | Cc1sc2c(c1C)C(c1ccc(/C=C/C=O)cc1)=N[C@@H](CC(=O)OC(C)(C)C)c1nncn1-2 | 75% | 64 nM | > 750 min | 415 min | inactive | inactive | > 90% |  |  |  |  |  |  |  | 
2 | Cc1sc2c(c1C)C(c1ccc(/C=C/C(N)=O)cc1)=N[C@@H](CC(=O)OC(C)(C)C)c1nncn1-2 |  |  | > 750 min | > 750 min |  |  |  | inactive | inactive | Active |  |  |  |  | 
3 | Cc1sc2c(c1C)C(c1ccc(C#CCO)cc1)=N[C@@H](CC(=O)OC(C)(C)C)c1nncn1-2 | 10% | > 10000 nM |  |  |  |  |  |  | inactive |  |  |  |  |  | 
4 | Cc1sc2c(c1C)C(c1ccc(C#CC=O)cc1)=N[C@@H](CC(=O)OC(C)(C)C)c1nncn1-2 | 69% | 703 nM | > 750 min | 530 min | inactive | inactive | > 90% |  |  |  | 2.12 | 0.28 | 73% |  | 
5 | Cc1sc2c(c1C)C(c1ccc(C#CC(N)=O)cc1)=N[C@@H](CC(=O)OC(C)(C)C)c1nncn1-2 | 69% | 51 nM | > 750 min | 380 min | inactive | inactive |  |  |  |  |  |  |  |  | 
6 | Cc1sc2c(c1C)C(c1ccc(NC(=O)CCl)cc1)=N[C@@H](CC(=O)OC(C)(C)C)c1nncn1-2 |  | 8 nM | > 750 min | 531 min |  | inactive | > 90% |  |  |  |  |  |  | 56% | 
7 | C=CS(=O)(=O)Nc1ccc(C2=N[C@@H](CC(=O)OC(C)(C)C)c3nncn3-c3sc(C)c(C)c32)cc1 |  | 1 nM | > 750 min | > 750 min | inactive | inactive |  |  |  |  |  |  |  | 95% | 1000
